Laboratory results from PubChem BioAssay (NCI).
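A five-concentration, 48-hour dose response in 96-well plates underlies each endpoint, interpolated linearly between surrounding concentrations. Definition used: TGI = concentration required for complete inhibition of growth.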

Assays:
Assay in all cases: inhibition of tumour cell growth, NCI panel, 48 h
[1] = tested on: 786-0 renal
[2] = tested on: A498 renal
[3] = tested on: A549 NSCLC
[4] = tested on: CAKI-1 renal
[5] = tested on: CCRF-CEM leukemia
[6] = tested on: COLO 205 colon
[7] = tested on: DLD-1 colon
[8] = tested on: DMS 114 small cell lung
[9] = tested on: DMS 273 small cell lung
[10] = tested on: EKVX NSCLC
[11] = tested on: HCC-2998 colon
[12] = tested on: HCT-116 colon
[13] = tested on: HL-60(TB) leukemia
[14] = tested on: HOP-62 NSCLC
[15] = tested on: HOP-92 NSCLC
[16] = tested on: HT29 colon
[17] = tested on: K-562 leukemia
[18] = tested on: KM12 colon
[19] = tested on: LXFL 529 NSCLC
[20] = tested on: M14 melanoma
[21] = tested on: M19-MEL melanoma
[22] = tested on: MALME-3M melanoma
[23] = tested on: MOLT-4 leukemia
[24] = tested on: NCI-H226 lung
[25] = tested on: NCI-H23 lung
[26] = tested on: NCI-H522 lung
[27] = tested on: OVCAR-3 ovarian
[28] = tested on: OVCAR-4 ovarian
[29] = tested on: OVCAR-8 ovarian
[30] = tested on: RPMI-8226 leukemia
[31] = tested on: RXF-631 renal
[32] = tested on: SF-268 CNS
[33] = tested on: SF-295 CNS
[34] = tested on: SF-539 CNS
[35] = tested on: SK-MEL-2 melanoma
[36] = tested on: SK-MEL-28 melanoma
[37] = tested on: SK-MEL-5 melanoma
[38] = tested on: SK-OV-3 ovarian
[39] = tested on: SN12C renal
[40] = tested on: SNB-19 CNS
[41] = tested on: SNB-75 CNS
[42] = tested on: SNB-78 CNS
[43] = tested on: SR leukemia
[44] = tested on: SW-620 colon
[45] = tested on: TK-10 renal
[46] = tested on: UACC-257 melanoma
[47] = tested on: UACC-62 melanoma
[48] = tested on: UO-31 renal
[49] = tested on: XF 498 CNS
[50] = tested on: ACHN renal
[51] = tested on: HCT-15 colon
[52] = tested on: IGROV1 ovarian
[53] = tested on: KM20L2 colon
[54] = tested on: LOX IMVI melanoma
[55] = tested on: NCI-H460 lung
[56] = tested on: OVCAR-5 ovarian
[57] = tested on: RXF 393 renal
[58] = tested on: U251 CNS

CN(C)CCCCC1CCN(CC(=O)N2c3ccccc3NC(=O)c3ccccc32)CC1
TGI [1]: > 100 µM
TGI [2]: > 100 µM
TGI [3]: > 100 µM
TGI [4]: > 100 µM
TGI [5]: > 100 µM
TGI [6]: > 100 µM
TGI [7]: > 100 µM
TGI [8]: > 100 µM
TGI [9]: > 100 µM
TGI [10]: > 100 µM
TGI [11]: > 100 µM
TGI [12]: > 100 µM
TGI [13]: > 100 µM
TGI [14]: > 100 µM
TGI [15]: > 100 µM
TGI [16]: > 100 µM
TGI [17]: > 100 µM
TGI [18]: > 100 µM
TGI [19]: > 100 µM
TGI [20]: 72.9 µM
TGI [21]: > 100 µM
TGI [22]: > 100 µM
TGI [23]: > 100 µM
TGI [24]: > 100 µM
TGI [25]: > 100 µM
TGI [26]: > 100 µM
TGI [27]: > 100 µM
TGI [28]: > 100 µM
TGI [29]: > 100 µM
TGI [30]: > 100 µM
TGI [31]: > 100 µM
TGI [32]: > 100 µM
TGI [33]: > 100 µM
TGI [34]: > 100 µM
TGI [35]: > 100 µM
TGI [36]: > 100 µM
TGI [37]: > 100 µM
TGI [38]: > 100 µM
TGI [39]: > 100 µM
TGI [40]: > 100 µM
TGI [41]: > 100 µM
TGI [42]: > 100 µM
TGI [43]: > 100 µM
TGI [44]: > 100 µM
TGI [45]: > 100 µM
TGI [46]: > 100 µM
TGI [47]: > 100 µM
TGI [48]: > 100 µM
TGI [49]: > 100 µM

O=c1c(C(=Nc2ccccc2)c2ccccc2)c[nH]n1-c1ccccc1
TGI [1]: > 100 µM
TGI [2]: > 100 µM
TGI [3]: > 100 µM
TGI [50]: > 100 µM
TGI [4]: > 100 µM
TGI [5]: > 100 µM
TGI [6]: > 100 µM
TGI [7]: > 100 µM
TGI [8]: > 100 µM
TGI [9]: > 100 µM
TGI [10]: > 100 µM
TGI [11]: > 100 µM
TGI [51]: > 100 µM
TGI [13]: > 100 µM
TGI [16]: > 100 µM
TGI [52]: > 100 µM
TGI [17]: > 100 µM
TGI [18]: > 100 µM
TGI [53]: > 100 µM
TGI [54]: > 100 µM
TGI [19]: > 100 µM
TGI [20]: > 100 µM
TGI [22]: > 100 µM
TGI [23]: > 100 µM
TGI [25]: > 100 µM
TGI [55]: > 100 µM
TGI [26]: > 100 µM
TGI [28]: > 100 µM
TGI [56]: > 100 µM
TGI [29]: > 100 µM
TGI [30]: > 100 µM
TGI [57]: 72.8 µM
TGI [31]: > 100 µM
TGI [32]: > 100 µM
TGI [33]: > 100 µM
TGI [34]: > 100 µM
TGI [35]: > 100 µM
TGI [36]: > 100 µM
TGI [37]: > 100 µM
TGI [38]: > 100 µM
TGI [39]: > 100 µM
TGI [40]: > 100 µM
TGI [41]: > 100 µM
TGI [42]: > 100 µM
TGI [44]: > 100 µM
TGI [45]: > 100 µM
TGI [58]: > 100 µM
TGI [46]: > 100 µM
TGI [47]: > 100 µM
TGI [48]: > 100 µM
TGI [49]: > 100 µM

O=S(=O)(c1ccccc1)C1CN2OC1(S(=O)(=O)c1ccccc1)CC21CCCCC1 (centres undefined)
TGI [1]: > 100 µM
TGI [3]: > 100 µM
TGI [50]: > 100 µM
TGI [4]: > 100 µM
TGI [5]: > 100 µM
TGI [6]: > 100 µM
TGI [7]: > 100 µM
TGI [8]: > 100 µM
TGI [9]: > 100 µM
TGI [10]: > 100 µM
TGI [11]: > 100 µM
TGI [12]: > 100 µM
TGI [51]: > 100 µM
TGI [13]: > 100 µM
TGI [14]: > 100 µM
TGI [16]: > 100 µM
TGI [52]: > 100 µM
TGI [17]: > 100 µM
TGI [18]: > 100 µM
TGI [53]: > 100 µM
TGI [54]: > 100 µM
TGI [19]: > 100 µM
TGI [20]: > 100 µM
TGI [21]: > 100 µM
TGI [22]: > 100 µM
TGI [23]: > 100 µM
TGI [24]: > 100 µM
TGI [25]: > 100 µM
TGI [55]: > 100 µM
TGI [26]: > 100 µM
TGI [27]: > 100 µM
TGI [28]: > 100 µM
TGI [56]: > 100 µM
TGI [29]: > 100 µM
TGI [30]: > 100 µM
TGI [57]: > 100 µM
TGI [31]: > 100 µM
TGI [32]: > 100 µM
TGI [33]: > 100 µM
TGI [34]: > 100 µM
TGI [35]: > 100 µM
TGI [36]: > 100 µM
TGI [38]: > 100 µM
TGI [39]: > 100 µM
TGI [40]: > 100 µM
TGI [41]: > 100 µM
TGI [43]: > 100 µM
TGI [44]: > 100 µM
TGI [45]: > 100 µM
TGI [58]: > 100 µM
TGI [46]: > 100 µM
TGI [47]: > 100 µM
TGI [48]: > 100 µM
TGI [49]: > 100 µM
